Data on six compounds can be found in patent publication US4048334A, “Active derivatives of methylamino in therapeutic compositions and methods of use” (priority 1974, dated 1977).

Data set [1] relates to peripheral noradrenergic phenomena (arterial pressure, nictitating membrane). The following applies: cat, in vivo.
Procedure: (§1) A cat, anaesthetized with pentobarbital, received a sufficient dose of norepinephrine to increase arterial pressure but not sufficient to cause contraction of the nictitating membrane. Arterial pressure was measured at the carotid immediately after administration of the dose of norepinephrine.
Data set [2] relates to reserpine-induced catatonia. In words: Suppression of reserpine-induced catatonia (curative treatment). It counts as in vivo, rat (male, OFA strain). Details: key to catatonia score (maximum 5 per batch): number of animals (of 5) still in catatonia; max 5 per batch. The following applies: 80 mg/kg oral. The procedure: a. Suppression of reserpine-induced catatonia
Batches of 5 male rats of the OFA strain, weighing 150 to 200 g were given 5 mg/kg of reserpine by intraperitoneal route. One hour and 45 minutes later, namely when the animals were in a state of catatonia, an aqueous dose of the compound to be studied was administered by oral route to all the animals with the exception of the control group.
The progress of the catatonia was then noted following the scale used in the tests described hereabove.
The maximum score was thus 5 per batch which means that all the animals of the batch were considered to be still in a state of catatonia.

A further data set concerns catalepsy. Description: Inhibition of catalepsy (crossing of homolateral paws, prochlorperazine). It counts as in vivo, rat. The following applies: Rattus norvegicus, po, read-out: dose necessary to induce complete inhibition of the catalepsy; prochlorperazine catalepsy. Here is the method: Additional trials were carried out on rats with Compound 1 and amantadine. These trials involved catalepsy as evidenced by the crossing of the animals' homolateral paws.

The next data set concerns electrocardiogram. In words: Effect on the electrocardiogram. The following applies: dog, 5 mg/kg injected. The format is in vivo.
Data set [3] concerns peripheral noradrenergic phenomena (arterial pressure, nictitating membrane). In words: Influence on peripheral noradrenergic phenomena (norepinephrine, arterial pressure and nictitating membrane).
Procedure: as §1
Data set [4] relates to neuroleptic-induced catatonia. In words: Suppression of neuroleptic-induced catatonia (curative treatment, prochlorperazine). The following applies: 80 mg/kg oral. The format is in vivo, rat (male, OFA strain). Here is the method: b. Suppression of neuroleptic-induced catatonia
Batches of 5 male rats of the OFA strain were given 12.5 mg/kg of prochlorperazine by intraperitoneal route. Fifty-five minutes later, an oral dose in aqueous solution of the compound to be studied was administered to all the animals with the exception of the control group. The progress of the catatonia was noted following the same scale as that used in the tests described above.

Data set [5] has as its system neuroleptic-induced catatonia. Description: Inhibition of neuroleptic-induced catatonia (prochlorperazine). The format is in vivo, rat (male, OFA strain). The procedure: 2. Inhibition of neuroleptic-induced catatonia
The blocking of dopaminergic receptors by neuroleptics in the extra-pyramidal system induces catatonia in the rat. Catatonia is differentiated from sedative properties by means of the test used hereabove for reserpine-induced catatonia. The same system of scoring was also employed in the present case.
An oral dose of the compound to be studied in aqueous solution was administered to batches of 10 male rats of the OFA strain weighing about 150 to 200 g. […] Three hours after the injection of this latter compound, catatonia was measured. An identical trial was also carried out with control animals which received prochlorperazine but none of the compounds under study.
The scoring system, used was that given hereabove in Table I.

In data set [6] the test system is tremorine-induced cholinergic effects. Description: Anti-tremorine test (cholinolytic properties in vivo). More on the design: species or system mice (male, OF1 strain); key to peripheral cholinergic effects score (salivation, sweating, weeping): 0: no action; 1: slight action; 2: average action; 3: strong action; 4: very strong action. Here is the method: For this purpose, the following test was performed with a view to determining the anti-tremorine properties of Compound 1.
When injected into mice, tremorine produces peripheral effects i.e. weeping, sweating, salivation and diarrhoea and central effects i.e. tremor and akinesia. Such effects are due to an increase in the amount of intracerebral acetylcholine and serotonine.
Male mice of the OF1 strain weighing about 22 g were divided into batches of 10. […] Thirty minutes later a dose of 10 mg/kg of tremorine was injected by intraperitoneal route and, at different times after this injection, note was taken of the cholinergic effects on each animal in accordance with the following scale: […]

For data set [7], the system named is reserpine-induced catatonia. In words: Inhibition of reserpine-induced catatonia. It counts as in vivo, rat (male, OFA strain). The procedure:
1. Inhibition of reserpine-induced catatonia
After sufficient doses of reserpine have been administered to the rat, a series of symptoms occur, more particularly ptosis, catatonia and a drop in central temperature. These symptoms are caused by the depletion of the intragranular reserve pool of boigenetic amines at the synaptic terminals.
An oral dose of the compound to be studied in aqueous solution was administered to batches of 10 male rats of the OFA strain weighing about 150 to 200 g. Thirty minutes later a dose of 5 mg/kg of reserpine was given by intraperitoneal route. Three hours after the injection of reserpine, the animals were suspended by the four paws to a horizontally stretched wire fixed at 15 cm from the ground. The catatonic animals were those which maintained the position so given for at least 30 seconds. […] The maximum score was therefore 10 per batch. An identical trial was undertaken with control animals which received reserpine but none of the compounds being studied.

In data set [8] the test system is isolated duodenum of the rat. Description: MAGNUS test: inhibition of acetylcholine spasm (cholinolytic / spasmolytic activity in vitro). The source says:
This test consists in determining the dose of acetylcholine which, when added to the bath, provokes spasm of the isolated duodenum of the rat. The next step consists in determining the dose of the compound under study which, when added to the bath 30 seconds before the acetylcholine, reduces the spasm.

A short description of another data set: in vivo. The following applies: mouse, mice, oral, aqueous solution, 10 days observation.
The nature of data set [9]: Toxico-pharmacological index (LD50 / effective dose in catatonia). Particulars: in vivo.
Data set [10] relates to reserpine-induced and neuroleptic-induced catatonia. The description is as above. The following applies: ED20-30: 20 to 30% inhibition of the catatonia.
For data set [11] the following is noted: SPERBER et al., J. Amer. Chem. Soc., 71, 3352 (1949); cited from earlier work.
Where [12] appears, read: 20 mg/kg oral, 30 min before prochlorperazine.
Where [13] appears, read: 20 mg/kg oral, 30 min before reserpine.

Take `NC12CC3CC(CC(C3)C1)C2` [Amantadine, 1-amino-adamantane]: the “dose from which exogenous norepinephrine is potentiated” value in data set [1] is no less than 1 mg/kg. In addition, the “dose from which ganglioplegic properties are shown” value in [1] is on record as no less than 5 mg/kg. In addition, the “catatonia score (maximum 5 per batch)” value in [2] (2h15 after reserpine) was determined as 4; in data set [2] (2h30 after reserpine) it was 3; in data set [2] (3h30 after reserpine), 1; in [2] (2h after reserpine), 5; in data set [2] (3h after reserpine), 2; in [2] (4h after reserpine), 0. Besides, in [2] (5h after reserpine), the “catatonia score (maximum 5 per batch)” value stood at 0. In the data set with catalepsy, the ED100 was determined as 80 mg/kg. Further, in the data set with electrocardiogram, the “effect on the electrocardiogram” value was “cardiac arrhythmia due to ventricular extrasystoles”. Moreover, the “Contractile reaction of the nictitating membrane with electric stimulation” value is given as 20 mm in data set [3] (cumulative dose 0.1 mg/kg i.v.); 20 mm in data set [3] (cumulative dose 1 mg/kg i.v.); 16 mm in data set [3] (cumulative dose 3 mg/kg i.v.); 10 mm in data set [3] (cumulative dose 5 mg/kg i.v.); 4 mm in data set [3] (cumulative dose 10 mg/kg i.v.). For the same compound, the “Contractile reaction of the nictitating membrane without electric stimulation” value turned out to be 0 mm in data set [3] (cumulative dose 0.1 mg/kg i.v.); 3 mm in data set [3] (cumulative dose 1 mg/kg i.v.); 4.4 mm in data set [3] (cumulative dose 3 mg/kg i.v.); 5.9 mm in data set [3] (cumulative dose 5 mg/kg i.v.); 7.5 mm in data set [3] (cumulative dose 10 mg/kg i.v.). For the same compound, the “Increase in arterial pressure after injection of norepinephrine” value came to 29 mm Hg in data set [3] (cumulative dose 0.1 mg/kg i.v.); 35 mm Hg in [3] (cumulative dose 1 mg/kg i.v.); 35 mm Hg in data set [3] (cumulative dose 3 mg/kg i.v.); 59 mm Hg in data set [3] (cumulative dose 5 mg/kg i.v.); 57 mm Hg in [3] (cumulative dose 10 mg/kg i.v.). Moreover, the ganglioplegic action entry in [3] (in vivo) was “exerts a ganglioplegic action”. For the same compound, the “own effect on contractile reaction of the nictitating membrane” value in data set [3] (in vivo) is reported as “stimulates the contractile reaction of the nictitating membrane”. The “potentiation of (peripheral) effects of norepinephrine” value in data set [3] (in vivo) is “potentiates the peripheral adrenergic effects”. Also, the “potentiation of the effects of the electric stimulation” value in data set [3] (in vivo) is “does not potentiate the effects of the electric stimulation”. The “catatonia score (5 rats per batch)” value is 5 in [4] (1h30 after prochlorperazine); 2 in [4] (2h30 after prochlorperazine); 0 in data set [4] (3h30 after prochlorperazine); 1 in [4] (3h after prochlorperazine); 0 in [4] (4h after prochlorperazine); 0 in data set [4] (5h after prochlorperazine). Moreover, in [5] (100 mg/kg oral, 30 min before prochlorperazine), the “Inhibition of the neuroleptic-induced catatonia” value is on record as 4 (100% inhibition of catatonia in comparison with the controls (namely a score of 0 per studied batch)). Besides, the “peripheral cholinergic effects score (salivation, sweating, weeping)” value in data set [6] (40 mg/kg oral, 20, 30 and 40 minutes after tremorine 10 mg/kg i.p.) turned out to be 4. Besides, the “central cholinergic effects (normal and provoked tremor)” value in data set [6] (40 mg/kg oral, identical to the peripheral score (4)) is given as “Identical results”. The antitremorine properties result in [6] (mouse, in vivo) is reported as “devoid of antitremorine properties”. In addition, the “Inhibition of reserpine-induced catatonia” value in data set [7] (100 mg/kg oral, 30 min before reserpine) is 4 (100% inhibition of catatonia in comparison with the controls (namely a score of 0 per studied batch)).
As for `CN1[C@@H]2CC[C@H]1C[C@@H](OC(=O)C(CO)c1ccccc1)C2` (stereo partly drawn) [Atropine, reference compound], the “% of inhibition of the spasm” value was 45% in data set [8] (0.1 × 10^-6 g/ml of bath) and 100% in data set [8] (0.2 × 10^-6 g/ml of bath).
Turning to `CCCC(N)(CC)CCC` [Compound 2, 1-Ethyl-1-n-propyl-n-butylamine], the LD50 (as a rule, the dose expected to kill half of the subjects tested) at 240 h in “in vivo” was found to be 150 mg/kg. In addition, in data set [5] (5 mg/kg oral, 30 min before prochlorperazine 12.5 mg/kg i.p.), the “Inhibition of the neuroleptic-induced catatonia” value was 1 (20 to 30% inhibition of catatonia in comparison with the controls (namely a score of 7 to 8 per studied batch)). The selectivity ratio in data set [9] came to 25. For the same compound, the “Inhibition of reserpine-induced catatonia” value in data set [7] (5 mg/kg oral, 30 min before reserpine 5 mg/kg i.p.) is reported as 1 (20 to 30% inhibition of catatonia in comparison with the controls (namely a score of 7 to 8 per studied batch)).
`CCCC(C)(N)CC(C)CC` (stereo not drawn) [Compound 6, 1,3-Dimethyl-1-n-propyl-n-pentylamine] yielded an LD50 at 240 h in “in vivo” greater than 500 mg/kg. Further, the “Inhibition of the neuroleptic-induced catatonia” value in data set [5] (setting [12]) is 1 (20 to 30% inhibition of catatonia in comparison with the controls (namely a score of 7 to 8 per studied batch)). In addition, the “Index LD50/ED20-30” value in data set [10] is given as greater than 25. In data set [7] (setting [13]), the “Inhibition of reserpine-induced catatonia” value is on record as 1 (20 to 30% inhibition of catatonia in comparison with the controls (namely a score of 7 to 8 per studied batch)).
For `CCCCCC(C)(N)CCC` (stereo not drawn) [Compound 9, 1-Methyl-1-n-propyl-n-hexylamine], in “in vivo”, the LD50 at 240 h worked out at 1750 mg/kg. In data set [5] (setting [12]), the “Inhibition of the neuroleptic-induced catatonia” value is recorded as 1 (20 to 30% inhibition of catatonia in comparison with the controls (namely a score of 7 to 8 per studied batch)). Further, the “Index LD50/ED20-30” value in data set [10] is recorded as 87. Further, the “Inhibition of reserpine-induced catatonia” value in data set [7] (setting [13]) is 1 (20 to 30% inhibition of catatonia in comparison with the controls (namely a score of 7 to 8 per studied batch)).
Take `CCCCC(N)(CCCC)CCCC` [Compound 12, 1,1-Di-n-butyl-n-pentylamine]: in the data set “in vivo”, the LD50 at 240 h was found to be 500 mg/kg. In addition, the “Inhibition of the neuroleptic-induced catatonia” value in [5] (setting [12]) is 1 (20 to 30% inhibition of catatonia in comparison with the controls (namely a score of 7 to 8 per studied batch)). The “Index LD50/ED20-30” value in data set [10] is on record as 25. The “Inhibition of reserpine-induced catatonia” value in [7] (setting [13]) is 1 (20 to 30% inhibition of catatonia in comparison with the controls (namely a score of 7 to 8 per studied batch)). In [11], the “spasmolytic activity and toxicity versus corresponding trialkylethylamines” value was “less spasmolytic and more toxic than the corresponding trialkylethylamines”.
